What all share (format): cell-based
One data set concerns breast MDA-MB-435. Nature of the data set: COMPARE screening (NCI human cancer cell line screen), cytotoxicity GI50.
Another data set relates to colon HCT-116. Described as above. The method, then:
(§1) Selected compounds were tested for antiproliferative activity in the National Cancer Institute's developmental therapeutics assay 60 cell line screen (NCI60). The cells were incubated with the tested compounds at 100, 10, 1, 0.1, and 0.01 μM concentrations for 48 h before treatment with sulforhodamine B dye. Optical densities were recorded, and their ratios relative to that of the control were plotted as percentage growth against the log 10 of the tested compound concentrations.

The test system of a further data set is renal SN12C. The data set is described as above. As to the method:
as §1

A further data set has as its system prostate DU-145. The description is as above. As to the method: as §1
Another data set deals with ovarian OVCAR-3. The description is as above. The method, then:
as §1

The next data set relates to melanoma UACC-62. The data set is described as above. The method, then:
as §1

Data set [1] has as its system all human cancer cell lines successfully tested. Nature of the data set: NCI screen mean graph midpoint (MGM) for growth inhibition. As to the method: COMPARE screening. The compounds described herein were examined for antiproliferative activity against the human cancer cell lines in the National Cancer Institute screen (COMPARE screening), in which the activity of each compound was evaluated with approximately 55 different cancer cell lines of diverse tumor origins. […] Therefore, the MGM value represents an overall assessment of toxicity of the compound across numerous cell lines.
as §1
The cytotoxicities of the compounds to cultured cancer cells were measured in the National Cancer Institute's 60 cell line assay (a.k.a. NCI-60).

Another data set concerns lung HOP-62. Nature of the data set: COMPARE screening (NCI human cancer cell line screen), cytotoxicity GI50. As to the method:
as §1

Where [2] appears, read: all human cancer cell lines successfully tested.
[3] abbreviates: Table 1, average GI50 of all cell lines tested (approximately 55), test range 10^−8 to 10^−4 molar.

The record followed here is patent US9796753B2, “N-substituted indenoisoquinolines and syntheses thereof” (Purdue Research Foundation, priority 2005, dated 2017).

Read-outs that look alike come from different tables or passages of the source.

With `CN(C)CCCn1c2c(c3ccccc3c1=O)C(=O)c1ccccc1-2` [Compound 5d], the GI50 in the data set on breast MDA-MB-435 was determined as 2820 nM; in the data set on colon HCT-116, 580 nM; in the data set with renal SN12C, 910 nM; in the data set with prostate DU-145 it was 1320 nM; in the data set with ovarian OVCAR-3, 1700 nM; with melanoma UACC-62, 510 nM.
For `Cl.O=C1c2ccccc2-c2c1c1ccccc1c(=O)n2CCCCNCCCn1c2c(c3ccccc3c1=O)C(=O)c1ccccc1-2` [Compound 14b, Bis{(5,6-dihydro-5,11-diketo-11H-indeno[1,2-c]isoquinoline)}-(6-propyl,6′-butyl)amine Hydrochloride], the GI50 in the data set with breast MDA-MB-435 is 562 nM; in the data set on colon HCT-116 it was 56 nM; with renal SN12C it was 132 nM; with prostate DU-145, 288 nM; with lung HOP-62 it was 28 nM; in the data set with ovarian OVCAR-3, 372 nM. Also, the GI50 in the data set with melanoma UACC-62 is 513 nM. Moreover, in data set [1] (setting [2]), the “MGM (mean graph midpoint for growth inhibition)” value came out at 0.357 ± 0.087 µM.
For the compound `O=C1c2ccccc2-c2c1c1ccc([N+](=O)[O-])cc1c(=O)n2CCN1CCOCC1` [Compound 5i, 5,6-Dihydro-6-(2-morpholin-4-yl-1-ethyl)-3-nitro-5,11-dioxo-11H-indeno[1,2-c]isoquinoline], the GI50 in the data set on breast MDA-MB-435 (Homo sapiens, MDA-MB-435, read-out: cytotoxicity (GI50) breast MDA-MB-435) was above 100000 nM; in the data set on colon HCT-116 (Homo sapiens, HCT-116, read-out: cytotoxicity (GI50) colon HCT-116) it was above 100000 nM; in the data set with renal SN12C (Homo sapiens, SN12C, read-out: cytotoxicity (GI50) renal SN12C) it was 58900 nM; in the data set with prostate DU-145 (Homo sapiens, DU-145, read-out: cytotoxicity (GI50) prostate DU-145) it was 61700 nM; in the data set with lung HOP-62 (Homo sapiens, HOP-62, read-out: cytotoxicity (GI50) lung HOP-62), 52500 nM; in the data set on ovarian OVCAR-3 (Homo sapiens, OVCAR-3, read-out: cytotoxicity (GI50) ovarian OVCAR-3), above 100000 nM. Also, in the data set with melanoma UACC-62 (Homo sapiens, UACC-62, read-out: cytotoxicity (GI50) melanoma UACC-62), the GI50 was determined as 83200 nM. This compound also yielded an MGM (mean GI50 across cell lines) in data set [1] (setting [3]) of 74.1 µM.
As to `CN(C)CCCn1c2c(c3ccc([N+](=O)[O-])cc3c1=O)C(=O)c1ccccc1-2` [Compound 5c], the GI50 in the data set on breast MDA-MB-435 was above 100000 nM; with colon HCT-116 it was 6460 nM; in the data set with renal SN12C, 4170 nM; in the data set on ovarian OVCAR-3, 25700 nM; with melanoma UACC-62, 7080 nM. This compound returned an MGM (mean GI50 across cell lines) in data set [1] (setting [3]) of 9.77 µM.
Regarding `O=C(O)C(F)(F)F.O=C(O)C(F)(F)F.O=C1c2ccccc2-c2c1c1ccccc1c(=O)n2CCNCCNCCn1c2c(c3ccccc3c1=O)C(=O)c1ccccc1-2` [Compound 14c, Bis-1,2-{(5,6-dihydro-5,11-diketo-11H-indeno[1,2-c]isoquinoline)-6-ethylamino}ethane Bis(trifluoroacetate)], the GI50 worked out at 1660 nM in the data set with breast MDA-MB-435; 29 nM in the data set with colon HCT-116; 178 nM with renal SN12C; 182 nM in the data set with prostate DU-145; 32 nM with lung HOP-62; 1660 nM in the data set with ovarian OVCAR-3. Besides, in the data set with melanoma UACC-62, growth was halved (GI50) at 331 nM. Moreover, in data set [1] (setting [2]), the “MGM (mean graph midpoint for growth inhibition)” value came out at 0.427 ± 0.01 µM.
As to `COc1cc2c3c(n(CCCn4ccnc4)c(=O)c2cc1OC)-c1cc2c(cc1C3=O)OCO2.Cl` [Compound 5l], the “MGM (mean graph midpoint for growth inhibition)” value in data set [1] (setting [3]) is 0.079 ± 0.023 µM.
Regarding `COc1cc2c3c(n(CCCN(CCCN(CCCn4c5c(c6ccccc6c4=O)C(=O)c4ccccc4-5)C(=O)OC(C)(C)C)C(=O)OC(C)(C)C)c(=O)c2cc1OC)-c1cc2c(cc1C3=O)OCO2` [Compound 16a, 1,3-{6-(3-tert-Butyloxycarbonylamino-1-propyl)-5,6-dihydro-2,3-dimethoxy-8,9-methylenedioxy-5,11-dioxo-11H-indeno[1,2-c]isoquinoline}-{5′,6′-dihydro-6′-[(3′-tert-butyloxycarbonylamino)-1′-propyl]-5′,11′-dioxo-11′H-indeno[1,2-c]isoquinoline}propane], the GI50 in the data set with breast MDA-MB-435, with colon HCT-116, with renal SN12C, in the data set with lung HOP-62 and with melanoma UACC-62 was above 100000 nM throughout. Moreover, the MGM (mean GI50 across cell lines) in data set [1] (setting [2]) worked out at 68.0 µM.
Regarding `COc1ccc2c(c1)C(=O)c1c-2n(CCCN2CCOCC2)c(=O)c2cc([N+](=O)[O-])ccc12` [Compound 5bj], the concentration for 50% growth inhibition (GI50) with breast MDA-MB-435, in the data set with colon HCT-116, with renal SN12C, with lung HOP-62, with ovarian OVCAR-3 and with melanoma UACC-62 was below 10 nM each time. In data set [1] (setting [3]), the “MGM (mean graph midpoint for growth inhibition)” value worked out at 0.014 ± 0.001 µM.

The term GI50 denotes the concentration at which growth is held to half of that of the control.
